One substance from article PMC8657723, “Novel Pituitary Actions of TAC4 Gene Products in Teleost” (International Journal of Molecular Sciences, 2021) can be followed below.

“Also recorded” adds a separate entry of the source. Bounds are passed on as bounds.

What all share (format): cell-based, grass carp (Ctenopharyngodon idellus)
One experiment has as its system six NKR isoforms. Kind of experiment: Functional activation of the six grass carp NKR isoforms, NFAT-Luc reporter in HEK293T cells. As to conditions: 24 h. How it is done:
To clarify the receptor selectivity of TAC4 gene products, a transfection experiment was conducted in HEK293T cells, and the fluorescent signal was detected by the firefly luciferase reporter gene detection kit. Firstly, the cDNA sequences of neurokinin receptor 1 isoforms a (NK1Ra), neurokinin receptor 1 isoforms b (NK1Rb), NK2R, neurokinin receptor 3 isoforms a1 (NK3Ra1), neurokinin receptor 3 isoforms a2 (NK3Ra2), and neurokinin receptor 3 isoforms b (NK3Rb) were isolated from grass carp pituitary, and the coding region of the six receptors were then subcloned into the eukaryotic expression vector pcDNA3.1. Secondly, the HEK293T cells were co-transfected with the plasmids of NFAT-Luc (Nuclear factor of activated T cells-luciferase), green fluorescent protein (GFP), and each pcDNA3.1-NKRs by using Lipofectamine 3000 (Thermo Fisher). The transfected HEK293T cells were incubated with various concentration HK-1 (1–10,000 nM), HK-2 (1–10,000 nM), or HK1-V7F (1–10,000 nM) for 24 h, respectively. Finally, the transfected cells were collected to detect the luciferase value according to the instructions of the firefly luciferase reporter gene detection kit.
To clarify the receptor selectivity of HK1 and HK2 for the six NKRs, HEK-293T cell lines were established to stably express NK1Ra, NK1Rb, NK2R, NK3Rb, NK3Ra1, or NK3Ra2 were established, respectively. The cells were then used for transfection study with NFAT-Luc vectors, which was allowed for functional evaluation of the activation status of Ca^2+-dependent pathway.
Figure 2 Receptor selectivity of HK1, HK2, and HK1-V7F. The nuclear factor of activated T-cells (NFAT)-Luc reporter together with NK1Ra, NK1Rb, NK2R, NK3Rb, NK3Ra1, or NK3Ra2, were transiently transfected into HEK-293 cells, respectively. The cells were incubated with increasing levels of grass carp HK1, HK2, or HK1-V7F (0.1–1000 nM), respectively. The luciferase activities were normalized against renilla expression in the same sample to adjust for potential variations in transfection efficiency. Each point is determined quadruplicate and is given as a mean ± SEM. The groups denoted by different letters represent significant differences at p-value < 0.05 (ANOVA followed Dunnett’s test).

Another experiment deals with NK2R. Kind of experiment: Functional activation of grass carp NK2R, NFAT-Luc reporter in HEK293T cells. As to conditions: among the six NKR isoforms. How it is done:
To clarify the receptor selectivity of TAC4 gene products, a transfection experiment was conducted in HEK293T cells, and the fluorescent signal was detected by the firefly luciferase reporter gene detection kit. Firstly, the cDNA sequences of neurokinin receptor 1 isoforms a (NK1Ra), neurokinin receptor 1 isoforms b (NK1Rb), NK2R, neurokinin receptor 3 isoforms a1 (NK3Ra1), neurokinin receptor 3 isoforms a2 (NK3Ra2), and neurokinin receptor 3 isoforms b (NK3Rb) were isolated from grass carp pituitary, and the coding region of the six receptors were then subcloned into the eukaryotic expression vector pcDNA3.1. Secondly, the HEK293T cells were co-transfected with the plasmids of NFAT-Luc (Nuclear factor of activated T cells-luciferase), green fluorescent protein (GFP), and each pcDNA3.1-NKRs by using Lipofectamine 3000 (Thermo Fisher). The transfected HEK293T cells were incubated with various concentration HK-1 (1–10,000 nM), HK-2 (1–10,000 nM), or HK1-V7F (1–10,000 nM) for 24 h, respectively. Finally, the transfected cells were collected to detect the luciferase value according to the instructions of the firefly luciferase reporter gene detection kit. […]
Figure 2 Receptor selectivity of HK1, HK2, and HK1-V7F. […] Each point is determined quadruplicate and is given as a mean ± SEM. […]

Experiment [1] relates to grass carp pituitary cells. Kind of experiment: Antagonist effect of HK1 on HK2-induced mRNA expression in grass carp pituitary cells. The note with it: HK2 0.1 µM + HK1 1 µM and 10 µM, 24 h. Here is the method:
(§1) Figure 9 Phe to Val mutation in FXGLM motif in PRL, SLα, and UTS1 regulation by HK2 in grass carp pituitary cells. (A) Effects of HK1-V7F on PRL, SLα, and UTS1 mRNA expression in grass carp pituitary cells. In this experiment, grass carp pituitary cells were incubated for 24 h with increasing levels of HK1-V7F (0.1–1000 nM). (B) Suppressed effects of HK1 on HK2-induced PRL, SLα, and UTS1 mRNA expression in grass carp pituitary cells. Pituitary cells were challenged for 24 h with grass carp HK2 (0.1 µM) in the presence or absence of HK1 (1 µM) and HK1 (10 µM). In these experiment, Trizol method was used to extract total cell RNA, and RT-PCR was used to detect PRL, SLα, and UTS1 mRNA expression. Data presented are expressed as mean ± SEM, and the differences between groups were significant at p-value < 0.05 by labeling diverse letters.
Furthermore, to verify whether HK1 could function as an endogenous antagonist of NKRs, we examined the antagonist effect of HK1 on HK2-induced pituitary hormone genes expression.

For experiment [2], the system named is grass carp pituitary cells. Kind of experiment: RT-qPCR of pituitary gene mRNA expression after peptide treatment of grass carp pituitary cells.
Description: To further confirm the pituitary actions of HKs in grass carp, trypsin digestion method was used to prepare for grass carp primary cultured pituitary cells. […] After drug treatment, total RNA was extracted from adherent cells by Trizol, and then subjected to reverse transcription using HifairTM III 1st Strand cDNA Synthesis Kit (Yeasen, Shanghai, China). In the present study, β-actin was used as the internal reference gene, and then, the transcript levels of PRL, SLα, CART2, UTS1, and NMB1 were detected by using a ABI 7500 real-time PCR system (see Supplementary Table S2 for primer sequences and PCR condition). In addition, the plasmid DNA containing the gene coding sequence was serially diluted as a standard for data calibration.
In this study, RT-qPCR was used to detect mRNA expression for TAC4, NKRs, PRL, SLα, CART2, UTS1, SN2, and NMB1. In the ABI7500 software, the dynamic mRNA concentration detection range of the double standard curve is 10^5, and the correlation coefficient is >0.95. […] In the transfection experiment, the detected firefly luciferase activity was routinely normalized with the GFP activity expressed in the same well, expressed as the luciferin activity ratio Luc ratio. The data from four parallel experiments was presented as mean ± SEM in the figure. All the data were analyzed by ANOVA, and then subjected to Dunnett’s test in GraphPad Prism 7.0. The significant differences between groups were indicated by p < 0.05.
Figure 5 TAC4 gene products (HK1 and HK2) induced PRL (A) and SLα (B) mRNA expression in grass carp pituitary cells. Time course of grass carp HK1 (1 μM) and HK2 (1 μM) on PRL (A) and SLα (B) mRNA expression in grass carp pituitary cells. Dose-dependence of 24-h treatment with increasing levels of HK1 and HK2 (0.1–1000 nM) on PRL (A) and SLα (B) mRNA expression in grass carp pituitary cells. After drug treatment, the total RNA of the cells was extracted by the Trizol method, and the expression of various genes was detected by RT-PCR. Data presented were expressed as mean ± SEM, and the differences between groups were significant at p-value < 0.05 by labeling diverse letters.
Figure 6 TAC4 gene products (HK1 and HK2) induced CART2, NMB1, and UTS1 mRNA expression in grass carp pituitary cells. Time course of grass carp HK1 (1 μM) and HK2 (1 μM) on CART2 (A), NMB1 (B), and UTS1 (C) mRNA expression in grass carp pituitary cells. Dose-dependence of 24-h treatment with increasing levels of HK1 or HK2 (0.1–1000 nM) on CART2 (A), NMB1 (B), and UTS1 (C) mRNA expression in grass carp pituitary cells. After drug treatment, the total RNA of the cells was extracted by the Trizol method, and the expression of various genes were detected by RT-PCR. Data presented were expressed as mean ± SEM, and the differences between groups were significant at p-value < 0.05 by labeling diverse letters.
as §1
Background: Quantitative PCR measures a nucleic acid by following its amplification.

Where [3] appears, read: 1 µM, 3 h, 6 h, 24 h, 48 h, RT-qPCR, β-actin.
Where [4] appears, read: 0.1–1000 nM, 24 h, RT-qPCR, β-actin.
[5] abbreviates: Figure 9B, 24 h static incubation, HK2 0.1 µM.

Consider “TPGLQQVFGLM-NH2 [HK1, grass carp TAC4 mature peptide, …-NH2]”, for which the “ED50, NFAT-Luc luciferase activity, NKR isoforms” value in the experiment on six NKR isoforms (HEK-293T expressing each NKR) was greater than 10 µM. Besides, the “activation of the six NKR isoforms (in words)” value in the experiment on six NKR isoforms (NFAT-Luc luciferase, HEK293T, NK1Ra, NK1Rb, NK2R, NK3Ra1, NK3Ra2, NK3Rb) is on record as “very weak activation; also recorded: relatively low efficient stimulant; also recorded: could barely activate any NKR isoforms”. The “NK2R activation (in words)” value in the experiment with NK2R is reported as “very weak activation”. Besides, in experiment [1], the “suppression of HK2-induced PRL mRNA expression” value was “could not suppress; also recorded: could not block”, the “suppression of HK2-induced SLα mRNA expression” value was “could not suppress; also recorded: could not block” and the “suppression of HK2-induced UTS1 mRNA expression” value was “could not suppress; also recorded: could not block”. In experiment [2] (setting [3]), the “CART2 mRNA expression, time course” value is given as “no effect”; the “NMB1 mRNA expression, time course” value is reported as “no effect”; the “PRL mRNA expression, time course” value was “no effect”; the “SLα mRNA expression, time course” value was “no effect”. Also, the “UTS1 mRNA expression, time course” value in experiment [2] (setting [3]) is “no effect”. Also, in experiment [2] (setting [4]), the “CART2 mRNA expression, dose-dependence” value was “ineffective”; the “NMB1 mRNA expression, dose-dependence” value is given as “ineffective”; the “PRL mRNA expression, dose-dependence” value is recorded as “ineffective”; the “SLα mRNA expression, dose-dependence” value was “ineffective”. For the same substance, the “UTS1 mRNA expression, dose-dependence” value in experiment [2] (setting [4]) is “ineffective”. Further, in experiment [2] (setting [5]), the “PRL mRNA stimulation compared to HK2” value was “much weaker”, the “SLα mRNA stimulation compared to HK2” value is listed as “much weaker” and the “UTS1 mRNA stimulation compared to HK2” value is “much weaker”. In addition, in experiment [2] (grass carp pituitary cells, PRL, SLα, UTS1, NMB1, CART2), the “pituitary genes' expression (summary)” value is “notably weaker; also recorded: ineffective for the six pituitary genes’ expression”.
